The nature of series [1]: Bi-directional Caco-2 permeability. Conditions: human. The format is in vitro ADME. As to the method: Bi-directional Caco-2 permeability was assayed. Caco-2 cells were seeded onto permeable polycarbonate supports and allowed to differentiate for about 3 weeks prior to being used in the assays. The cells were then exposed to the compounds from either the apical or basolateral sides and incubated at 37 C for up to 90 minutes under light agitation. Compound transport was then measured using LC/MS/MS analysis at 30, 60, and 90 minutes.

The test system of series [2] is Daudi cell line (AID positive). Kind of series: Primary screening cell killing assay, Daudi cell line (AID positive). The format is cell-based. Particulars: Homo sapiens, 168 h, cell death on Day 7, Cell-Titer Glo. How it is done:
Primary screening was a phenotypic screen that utilized the synthetic lethal interaction between AID and RAD51 to identify compounds that were both potent and on target. AID expressing cells are dependent upon RAD51 for survival; inhibiting RAD51 in AID positive cells results in a cytotoxic effect.
The first step was to set up a cell killing assay in the Daudi cell line (AID positive). A 96 well u-bottom plate was prepared by writing the experiment number, plate number, date and initials in the top right corner of the plate lid. With a sterile 300 ml reservoir, and 25 ml serological pipette, evaporation buffer media was pipetted into reservoir in 25 ml increments. Using the liquid handler, 150 ul of evaporation buffer media was pipetted from reservoir into rows A and H, and Columns 1 and 12 of the 96 well u-bottom plate. Cell cultures were counted to obtain the density of cells per ml, and the culture viability. The cell density information was used to obtain 1,000,000 cells from culture using a 5 mL serological pipette into an epi tube. The cell density information from the culture was used to calculate the number of cells and volume of media needed for the assay to seed 1250 cells in 130 ul of media per available culture well in the 96 well u-bottom plate. Rows B through F were used for cells (50 wells in total), with row G left for an empty media control. The calculation was overestimated by 10 mL to account for the dead volume in the 300 ml reservoir. Once the media volume was calculated, the appropriate volume of media was pipetted in 25 mL increments into the 250 mL bottle using a 25 mL serological pipette. The 250 ml bottle was capped tightly, and placed into a 37° C. water bath for 2 minutes. While the culture media was warming, 10 mL of fresh media was pipetted from the 500 mL culture media bottle into a sterile 25 mL reservoir. Using the Eppendorf multichannel pipette, 130 ul of media was pipetted from the 25 mL reservoir into row G of the 96 well u-bottom plate. Once the 250 mL bottle of media was warmed, the volume of culture needed was pipetted into the bottle, and mixed gently with a 25 mL serological pipette as to not create bubbles, and then the contents of the bottle were pipetted into a new 300 mL reservoir. Using the liquid handler, 130 ul of culture was pipetted from the 300 mL reservoir into rows B through F of the 96 well u-bottom plate. Once the culture was added, the plate was placed into a 37° C. incubator until the compound master plate was prepared for use.
Two 96 well u-bottom plates were prepared by writing the master plate name in the upper right corner of the plate lid. Labeling one DMSO master and the other Media Master. The compounds of interest were obtained from the laboratory freezer, and placed into a 25 well storage box with a lid, and set the box aside. The compounds were vortexed after thawing but before use. Using an automatic multichannel pipette, 20 ul of 100% DMSO was pipetted into wells B3-B11 through G3-G11 of the DMSO master plate. For each compound on the master plate, 50 ul of the compound were pipetted in the appropriate well of row 2 (reference plate map to determine appropriate well). A serial dilution was prepared beginning by aspirating 20 ul from row 2 and mixing with row 3, repeating until row 11 was reached. Using the liquid handler, 194 ul of Daudi media was dispensed into wells B2-B11 through G2-G11 of the Media master plate. Using the liquid handler, 6 ul from the DMSO master plate was aspirated and dispensed into the media master plate, mixing 100 ul twice.
Compounds from master plate were then added to the culture plate. The culture plates were removed from the incubator, and set inside the biosafety cabinet. Using a liquid handler, 20 ul from wells B2 to B11 through G2 to G11 of master plate were aspirated, and dispensed into wells B2 to B11 through G2 to G11 of culture plate. This set was continued with each culture plate. […]

Like-named read-outs stand apart in the source and are kept apart here. Where only a bound is given, the exact number is not on record here.

With `CC(C)OC(=O)Nc1ccc(-c2cnc([C@@H]3CC[C@@H](NC(=O)OC(C)C)CN3)s2)c(S(=O)(=O)NC(C)(C)C)c1` (relative stereo) [Ex. 63, trans-isopropyl N-[6-[5-[2-(tert-butylsulfamoyl)-4-(isopropoxycarbonylamino)phenyl]thiazol-2-yl]-3-piperidyl]carbamate], the recovery at 90 min in series [1] (Caco-2, Caco-2, AB direction, read-out: AB Recovery %) is 83.6%; in series [1] (Caco-2, Caco-2, BA direction, read-out: BA Recovery %) it was 90%. Besides, the efflux ratio at 90 min in series [1] (Caco-2, read-out: BA/AB Ratio) amounted to 2.5. Also, the Papp A→B at 90 min in series [1] (Caco-2, apical to basolateral, 37 C, up to 90 minutes, read-out: AB Papp (cm/sec × 10^6)) amounted to 10.5 ×10⁻⁶ cm/s. In addition, the Papp B→A at 90 min in series [1] (Caco-2, basolateral to apical, 37 C, up to 90 minutes, read-out: BA Papp (cm/sec × 10^6)) stood at 26.7 ×10⁻⁶ cm/s. Besides, the concentration for a half-maximal effect (EC50) in series [2] was in the range of 100 to 1000 nM.

`CN1CCC[C@H]1COC(=O)Nc1ccc(-c2cnc(N3CCC(OC(=O)NCc4ccccc4)CC3)s2)c(S(=O)(=O)NC(C)(C)C)c1` [Ex. 1, (S)-(1-methylpyrrolidin-2-yl)methyl (4-(2-(4-((benzylcarbamoyl)oxy)piperidin-1-yl)thiazol-5-yl)-3-(N-(tert-butyl)sulfamoyl)phenyl)carbamate] had an EC50 in series [2] of over 1000 nM.

With `CN1CCC[C@@H]1COC(=O)Nc1ccc(-c2cnc(N3CCC(OC(=O)NCc4ccccc4)CC3)s2)c(S(=O)(=O)NC(C)(C)C)c1` [Ex. 2, [1-[5-[2-(tert-butylsulfamoyl)-4-[[(2R)-1-methylpyrrolidin-2-yl]methoxycarbonylamino]phenyl]thiazol-2-yl]-4-piperidyl] N-benzylcarbamate], the EC50 in series [2] is over 1000 nM.

The compound `CC(C)OC(=O)N1CCN(c2ncc(-c3ccc(NC(=O)OCc4ccccc4)cc3S(=O)(=O)NC(C)(C)C)s2)CC1` [Ex. 6, isopropyl 4-[5-[4-(benzyloxycarbonylamino)-2-(tert-butylsulfamoyl)phenyl]thiazol-2-yl]piperazine-1-carboxylate] came in with an EC50 in series [2] of over 1000 nM.

For `CC(C)OC(=O)Nc1ccc(-c2cnc(C3CCC(NC(=O)OC[C@H]4CCCN4C)CC3)s2)c(S(=O)(=O)NC(C)(C)C)c1` (stereo partly drawn) [Ex. 8, [(2R)-1-methylpyrrolidin-2-yl]methyl N-[4-[5-[2-(tert-butylsulfamoyl)-4-(isopropoxycarbonylamino)phenyl]thiazol-2-yl]cyclohexyl]carbamate], the EC50 in series [2] was over 1000 nM.

In series [2], `CC(C)OC(=O)Nc1ccc(-c2cnc(C3CCC(NC(=O)OC[C@@H]4CCCN4C)CC3)s2)c(S(=O)(=O)NC(C)(C)C)c1` (stereo partly drawn) [Ex. 9, isopropyl (3-(N-(tert-butyl)sulfamoyl)-4-(2-((1S,4r)-4-(((((S)-1-methylpyrrolidin-2-yl)methoxy)carbonyl)amino)cyclohexyl)thiazol-5-yl)phenyl)carbamate] had a half-maximal effective concentration (EC50) of 100 to 1000 nM.

The compound `CN1CCC[C@@H]1COC(=O)NC1CCC(c2ncc(-c3ccc(NC(=O)NCc4ccccc4)cc3S(=O)(=O)NC(C)(C)C)s2)CC1` (stereo partly drawn) [Ex. 11, [(2R)-1-methylpyrrolidin-2-yl]methyl N-[4-[5-[4-(benzylcarbamoylamino)-2-(tert-butylsulfamoyl)phenyl]thiazol-2-yl]cyclohexyl]carbamate] displayed an EC50 in series [2] of 100 to 1000 nM.

In series [2], `CN1CCC[C@H]1COC(=O)N[C@H]1CC[C@H](c2ncc(-c3ccc(NC(=O)NCc4ccccc4)cc3S(=O)(=O)NC(C)(C)C)s2)CC1` [Ex. 12, ((S)-1-methylpyrrolidin-2-yl)methyl ((1r,4S)-4-(5-(4-(3-benzylureido)-2-(N-(tert-butyl)sulfamoyl)phenyl)thiazol-2-yl)cyclohexyl)carbamate] had an EC50 of 100 to 1000 nM.

Take `CC(C)OC(=O)N[C@H]1CC[C@H](c2ncc(-c3ccc(NC(=O)NCc4ccncc4)cc3S(=O)(=O)NC(C)(C)C)s2)CC1` [Ex. 22, trans-isopropyl N-[4-[5-[2-(tert-butylsulfamoyl)-4-(4-pyridylmethylcarbamoylamino)phenyl]thiazol-2-yl]cyclohexyl]carbamate]: the EC50 in series [2] is 100 to 1000 nM.

On to `CC(C)OC(=O)N[C@H]1CC[C@H](c2ncc(-c3ccc(NC(=O)NCc4ccc(F)cc4)cc3S(=O)(=O)NC(C)(C)C)s2)CC1` [Ex. 23, isopropyl ((1r,4r)-4-(5-(2-(N-(tert-butyl)sulfamoyl)-4-(3-(4-fluorobenzyl)ureido)phenyl)thiazol-2-yl)cyclohexyl)carbamate], for which the EC50 in series [2] is at most 100 nM.

For the compound `CC(C)OC(=O)N[C@H]1CC[C@H](c2ncc(-c3ccc(NC(=O)NCc4cccnc4)cc3S(=O)(=O)NC(C)(C)C)s2)CC1` [Ex. 25, isopropyl ((1r,4r)-4-(5-(2-(N-(tert-butyl)sulfamoyl)-4-(3-(pyridin-3-ylmethyl)ureido)phenyl)thiazol-2-yl)cyclohexyl)carbamate], in series [2], the EC50 is at most 100 nM.

As to `CC(C)OC(=O)N[C@H]1CC[C@H](c2ncc(-c3ccc(NC(=O)OCC4CCNCC4)cc3S(=O)(=O)NC(C)(C)C)s2)CC1` [Ex. 33, trans-4-piperidylmethyl N-[3-(tert-butylsulfamoyl)-4-[2-[4-(isopropoxycarbonylamino)cyclohexyl]thiazol-5-yl]phenyl]carbamate], the half-maximal effective concentration (EC50) in series [2] is over 1000 nM.

Compound `CC(C)OC(=O)NC1CCC(c2ncc(-c3ccc(NC(=O)OC[C@H]4CCCN4)cc3S(=O)(=O)NC(C)(C)C)s2)CC1` (stereo partly drawn) [Ex. 36, isopropyl ((1R,4r)-4-(5-(2-(N-(tert-butyl)sulfamoyl)-4-(((((R)-pyrrolidin-2-yl)methoxy)carbonyl)amino)phenyl)thiazol-2-yl)cyclohexyl)carbamate] showed an EC50 in series [2] of 100 to 1000 nM.

In series [2], `CC(C)OC(=O)NC1CCC(c2ncc(-c3ccc(NC(=O)OC[C@@H]4CCCN4)cc3S(=O)(=O)NC(C)(C)C)s2)CC1` (stereo partly drawn) [Ex. 37, isopropyl ((1S,4r)-4-(5-(2-(N-(tert-butyl)sulfamoyl)-4-(((((S)-pyrrolidin-2-yl)methoxy)carbonyl)amino)phenyl)thiazol-2-yl)cyclohexyl)carbamate] showed an EC50 of 100 to 1000 nM.

In series [2], `COc1cc(NC(=O)OC(C)C)cnc1-c1ncc(-c2ccc(NC(=O)OCC3CCNCC3)cc2S(=O)(=O)NC(C)(C)C)s1` [Ex. 56, 4-piperidylmethyl N-[3-(tert-butylsulfamoyl)-4-[2-[5-(isopropoxycarbonylamino)-3-methoxy-2-pyridyl]thiazol-5-yl]phenyl]carbamate] registered an EC50 of 100 to 1000 nM.

With `CC(C)OC(=O)N[C@H]1CC[C@@H](c2ncc(-c3ccc(NC(=O)NCc4ccccc4)cc3S(=O)(=O)NC(C)(C)C)s2)CC1` [Ex. 66B, cis-isopropyl N-[4-[5-[4-(benzylcarbamoylamino)-2-(tert-butylsulfamoyl)phenyl]thiazol-2-yl]cyclohexyl]carbamate], the EC50 in series [2] lay within 100 to 1000 nM.

In series [2], `CC(C)OC(=O)Nc1ccc(-c2cnc([C@H]3CC[C@@H](NC(=O)OC(C)C)CC3)s2)c(S(=O)(=O)NC(C)(C)C)c1` [Ex. 67B, cis-isopropyl N-[3-(tert-butylsulfamoyl)-4-[2-[4-(isopropoxycarbonylamino)cyclohexyl]thiazol-5-yl]phenyl]carbamate] displayed a 50% effective concentration (EC50) of over 1000 nM.

For `CC(C)OC(=O)NC1CCN(c2ncc(-c3ccc(NC(=O)NCc4ccccc4)cc3S(=O)(=O)NC(C)(C)C)s2)CC1` [Ex. 68, isopropyl N-[1-[5-[4-(benzylcarbamoylamino)-2-(tert-butylsulfamoyl)phenyl]thiazol-2-yl]-4-piperidyl]carbamate], the EC50 in series [2] lay in the range of 100 to 1000 nM.

With `CC(C)OC(=O)Nc1ccc(-c2cnc(N3CCC(NC(=O)OC(C)C)CC3)s2)c(S(=O)(=O)NC(C)(C)C)c1` [Ex. 69, isopropyl N-[1-[5-[2-(tert-butylsulfamoyl)-4-(isopropoxycarbonylamino)phenyl]thiazol-2-yl]-4-piperidyl]carbamate], the EC50 in series [2] was over 1000 nM.

Source of the values: patent US10336746B1, “RAD51 inhibitors” (Cyteir Therapeutics, Inc., priority 2017, dated 2019).
